Data set [1] addresses T1, human recombinant AdamTS-5 (Homo sapiens, UniProt Q9UNA0).
T1 construct: purchased R&D systems, Wiesbaden, Germany
T1 sequence (Q9UNA0 262-930): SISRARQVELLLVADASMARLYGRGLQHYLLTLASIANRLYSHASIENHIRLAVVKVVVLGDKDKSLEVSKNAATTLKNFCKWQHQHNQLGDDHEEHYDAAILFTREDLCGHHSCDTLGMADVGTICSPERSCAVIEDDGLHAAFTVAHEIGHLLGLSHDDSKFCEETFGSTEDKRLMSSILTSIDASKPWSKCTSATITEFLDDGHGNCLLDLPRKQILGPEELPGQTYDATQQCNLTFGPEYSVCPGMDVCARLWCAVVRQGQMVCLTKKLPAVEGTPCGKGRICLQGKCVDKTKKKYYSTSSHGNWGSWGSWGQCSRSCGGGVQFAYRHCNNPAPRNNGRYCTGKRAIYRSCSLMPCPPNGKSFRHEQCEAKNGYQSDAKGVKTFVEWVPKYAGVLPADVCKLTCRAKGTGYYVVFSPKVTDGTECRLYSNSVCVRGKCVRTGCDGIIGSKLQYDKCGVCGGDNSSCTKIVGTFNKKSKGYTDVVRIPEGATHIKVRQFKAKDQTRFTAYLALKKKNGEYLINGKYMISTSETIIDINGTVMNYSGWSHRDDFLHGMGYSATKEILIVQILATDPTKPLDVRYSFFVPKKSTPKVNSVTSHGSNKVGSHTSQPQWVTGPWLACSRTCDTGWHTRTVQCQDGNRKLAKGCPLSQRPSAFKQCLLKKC
The data set can be described thus: Biochemical activity testing of ADAMTS-5: aggrecan peptide cleavage assay (AlphaScreen). As to conditions: 4.5 nM human recombinant AdamTS-5, biotinylated 43mer aggrecan peptide, 180 min at 37° C.; read-out: IC50 [ADAM-NTS5]M. How it is done:
ADAMTS-5 is a metallo protease with glutamyl-endoprotease activity and cleaves aggrecan core protein at E373-A374 in the interglobular domain. To fully analyse the inhibitory potential of compounds on AdamTS-5 activity an Alphascreen® assay with a biotinylated 43mer aggrecan oligopeptide as substrate was performed. Cleavage by ADAMTS-5 caused production of a neoepitop N-terminus ARGS at the C-terminal fragment. The detection of this product is performed with streptavidin-AlphaScreen® donor beads binding to the biotin label and an anti-neoepitop (“ARGSV”) antibody that anchors anti-mouse IgG-coated AlphaLisa® acceptor beads to the other end of the generated fragment. Thereby, donor and acceptor beads get in proximity and a luminescence Alphascreen® signal is generated via the release of singlet oxygen. The cleavage activity was detectable directly by the increase in Alphascreen® signal.
The aggrecan peptide cleavage assay was performed as 384 well AlphaScreen® (Perkin Elmer) assay format in Perkin Elmer 384 AlphaPlate (proxiplate) shallow well microtiter plates and was used for high throughput screen in a total assay volume of 10 μl. 4.5 nM human recombinant AdamTS-5 (R&D systems, Wiesbaden, Germany) and 30 nM biotinylated peptide […]-K(bio) (custom-made, Biosynthan, Berlin, Germany) as substrate were incubated in a total volume of 6 μl (100 mM Tris/HCl, 150 mM NaCl, 10 mM CaCl2, 0.05% Brij®-35, 1% DMSO, 0.084% BSA, pH 7.5) in the absence or presence of the test compound (10 dilution concentrations) for 180 min at 37° C. The reaction was stopped and the first detection step performed by the addition of 2 μl detection solution 1 (48 mM EDTA, 8 nM aggrecan antibody N-term neoepitope ARG, mouse monoclonal BC3 antibody (MDBioproducts, Egg, Switzerland), 100 μg/ml Streptavidin Alphascreen® donor beads (Perkin Elmer, Rodgau, Germany) in 100 mM Tris/HCl, 150 mM NaCl, 0.05% Brij®-35, 0.1% BSA, pH 7.5). After an one-hour incubation at 37° C. 2 μl of the second detection solution (25 μg/ml anti-mouse AlphaLisa® acceptor beads (Perkin Elmer, Rodgau, Germany) in 100 mM Tris/HCl, 150 mM NaCl, 0.05% Brij®-35, 0.1% BSA, pH 7.5 were added. The plates were incubated for […] in the dark.
The AlphaScreen signal was measured with an Envision multimode reader (Perkin Elmer LAS Germany GmbH) with the Alphascreen protocol from Perkin Elmer (laser mode) emission wavelength 570 nm. The full value used was the inhibitor-free reaction. For the zero value a pharmacological reference was used. The inhibitory values (IC50) for the compounds were determined using either the program Symyx Assay Explorer® or Condosseo® from GeneData.
A general note: In Alpha technology, singlet oxygen from a donor bead excites a nearby acceptor bead.

Another data set is described as follows: Solubility pH7.4. As to conditions: pH 7.4, aqueous buffer. The class given is physicochemical.

SMILES strings stand for the structures. Converted amounts (≈) assume the structure as drawn.

The IC50 is the concentration at which inhibition is half-maximal. In general, solubility refers to the concentration that dissolves in the medium under given conditions. A higher solubility goes with a readily soluble substance. For the molecule `C[C@@H](C[C@H](NC(=O)c1ccc(-c2cccnc2)cc1)C(=O)NC(C)(C)Cc1ccc(F)cc1)C(=O)O` [Compound 16, (2S,4S)-4-[2-(4-Fluoro-phenyl)-1,1-dimethyl-ethylcarbamoyl]-2-methyl-4-(4-pyridin-3-yl-benzoylamino)-butyric acid], the concentration for half-maximal inhibition (IC50) in data set [1] was 390 nM. This molecule registered a solubility in the data set “Solubility pH7.4” of 365 µg/mL (≈ 743 µM). For `C[C@@H](C[C@H](NC(=O)c1ccc(-c2ccccc2)nc1)C(=O)NC(C)(C)Cc1ccc(F)cc1)C(=O)O` [Compound 14, (2S,4S)-4-[2-(4-Fluoro-phenyl)-1,1-dimethyl-ethylcarbamoyl]-2-methyl-4-[(6-phenyl-pyridine-3-carbonyl)-amino]-butyric acid], the IC50 in data set [1] was determined as 350 nM. Besides, the solubility in “Solubility pH7.4” amounted to 775 µg/mL (≈ 1580 µM). With `C[C@@H](C[C@H](NC(=O)C1CCN(c2ccc(F)cc2)CC1)C(=O)NC(C)(C)Cc1ccc(F)cc1)C(=O)O` [Compound 12, (2S,4S)-4-[2-(4-Fluoro-phenyl)-1,1-dimethyl-ethylcarbamoyl]-4-{[1-(4-fluoro-phenyl)-piperidine-4-carbonyl]-amino}-2-methyl-butyric acid], the half-inhibitory concentration (IC50) in data set [1] is 320 nM. Also, the solubility in the data set “Solubility pH7.4” was determined as 743 µg/mL (≈ 1440 µM). The matching figures for `C[C@@H](C[C@H](NC(=O)N1CCN(c2ccccc2)CC1)C(=O)NC(C)(C)Cc1ccc(F)cc1)C(=O)O` [Compound 15, (2S,4S)-4-[2-(4-Fluoro-phenyl)-1,1-dimethyl-ethylcarbamoyl]-2-methyl-4-[(4-phenyl-piperazine-1-carbonyl)-amino]-butyric acid]: 360 nM and 924 µg/mL (≈ 1850 µM). Turning to `C[C@@H](C[C@H](NC(=O)c1cnc(-c2ccc(F)cc2)s1)C(=O)NC(C)(C)Cc1ccc(F)cc1)C(=O)O` [Compound 20, (2S,4S)-4-[2-(4-Fluoro-phenyl)-1,1-dimethyl-ethylcarbamoyl]-4-{[2-(4-fluoro-phenyl)-thiazole-5-carbonyl]-amino}-2-methyl-butyric acid], the IC50 in data set [1] was found to be 1400 nM. This molecule also displayed a solubility in the data set “Solubility pH7.4” of 493 µg/mL (≈ 956 µM).

`C[C@@H](C[C@H](NC(=O)c1ccc(-c2ccccc2)cn1)C(=O)NC(C)(C)Cc1ccc(F)cc1)C(=O)O` [Compound 13, 4-[2-(4-Fluoro-phenyl)-1,1-dimethyl-ethylcarbamoyl]-2-methyl-4-[(5-phenyl-pyridine-2-carbonyl)-amino]-butyric acid]: in data set [1], the 50% inhibitory concentration (IC50) was 330 nM. Further, the concentration in solution in “Solubility pH7.4” (solubility) was 855 µg/mL (≈ 1740 µM). The matching figures for `CC(Cc1ccc(F)cc1)NC(=O)[C@H](C[C@H](C)C(=O)O)NC(=O)c1ccc(-c2ccccc2)cc1` (single isomer, unassigned) [Compound 17]: 530 nM and 303 µg/mL (≈ 636 µM). The matching figures for `CC(C)(Cc1ccc(F)cc1)NC(=O)[C@H](C[C@H](Cc1ccccc1)C(=O)O)NC(=O)c1ccc(-c2ccccc2)cc1` [Compound 6, (2S,4S)-2-Benzyl-4-[(biphenyl-4-carbonyl)-amino]-4-[2-(4-fluoro-phenyl)-1,1-dimethyl-ethylcarbamoyl]-butyric acid]: 150 nM and 60 µg/mL (≈ 106 µM).

Take `C[C@@H](C[C@H](NC(=O)c1ccc(-c2ccn(C)n2)cc1)C(=O)NC(C)(C)Cc1ccc(F)cc1)C(=O)O` [Compound 9, (2S,4S)-4-[2-(4-Fluoro-phenyl)-1,1-dimethyl-ethylcarbamoyl]-2-methyl-4-[4-(1-methyl-1H-pyrazol-3-yl)-benzoylamino]-butyric acid]: the IC50 in data set [1] was 180 nM. The molecule further returned a solubility in the data set “Solubility pH7.4” of 798 µg/mL (≈ 1610 µM).

For `COc1cc(CNC(=O)[C@H](CC(C)C(=O)O)NC(=O)c2ccc(-c3ccccc3)cc2)cc(OC)c1OC` (mixture of isomers) [Compound 1, 4-[(Biphenyl-4-carbonyl)-amino]-2-methyl-4-(3,4,5-trimethoxy-benzylcarbamoyl)-butyric acid], the concentration for half-maximal inhibition (IC50) in data set [1] was found to be 13 nM. Besides, the solubility in the data set “Solubility pH7.4” was 850 µg/mL. On the same counts, the results for `C[C@@H](Cc1ccc(F)cc1)NC(=O)[C@H](C[C@H](C)C(=O)O)NC(=O)c1ccc(-c2ccccc2)cc1` (single isomer, unassigned) [Compound 3] are 62 nM and 159 µg/mL (≈ 334 µM).

Take `C[C@@H](C[C@H](NC(=O)c1ccc(-c2ccccc2)cc1)C(=O)NC(C)(C)Cc1cccnc1)C(=O)O` [Compound 4, (2S,4S)-4-[(Biphenyl-4-carbonyl)-amino]-4-(1,1-dimethyl-2-pyridin-3-yl-ethylcarbamoyl)-2-methyl-butyric acid]: in data set [1], the concentration for half-maximal inhibition (IC50) was determined as 66 nM. As for `C[C@@H](C[C@H](NC(=O)c1ncc(-c2ccc(F)cc2)s1)C(=O)NC(C)(C)Cc1ccc(F)cc1)C(=O)O` [Compound 2, (2S,4S)-4-[2-(4-Fluoro-phenyl)-1,1-dimethyl-ethylcarbamoyl]-4-{[5-(4-fluoro-phenyl)-thiazole-2-carbonyl]-amino}-2-methyl-butyric acid], in data set [1], the half-inhibitory concentration (IC50) came out at 47 nM. In the data set “Solubility pH7.4”, this molecule registered a solubility of 912 µg/mL (≈ 1770 µM).

For the molecule `C[C@@H](C[C@H](NC(=O)c1ccc(-c2ccccn2)cc1)C(=O)NC(C)(C)Cc1ccc(F)cc1)C(=O)O` [Compound 10, (2S,4S)-4-[2-(4-Fluoro-phenyl)-1,1-dimethyl-ethylcarbamoyl]-2-methyl-4-(4-pyridin-2-yl-benzoylamino)-butyric acid], the IC50 in data set [1] came to 190 nM. For the same molecule, in the data set “Solubility pH7.4”, the solubility stood at 883 µg/mL (≈ 1800 µM).

With `C[C@@H](C[C@H](NC(=O)N1CCC(c2ccccc2)CC1)C(=O)NC(C)(C)Cc1ccc(F)cc1)C(=O)O` [Compound 18, (2S,4S)-4-[2-(4-Fluoro-phenyl)-1,1-dimethyl-ethylcarbamoyl]-2-methyl-4-[(4-phenyl-piperidine-1-carbonyl)-amino]-butyric acid], the IC50 in data set [1] is 1200 nM. The molecule also displayed a solubility in the data set “Solubility pH7.4” of 805 µg/mL (≈ 1620 µM).

With `C[C@@H](C[C@H](NC(=O)c1ccc(-c2ccccc2)cc1F)C(=O)NC(C)(C)Cc1ccc(F)cc1)C(=O)O` [Compound 11, (2S,4S)-4-[(3-Fluoro-biphenyl-4-carbonyl)-amino]-4-[2-(4-fluoro-phenyl)-1,1-dimethyl-ethylcarbamoyl]-2-methyl-butyric acid], the IC50 in data set [1] was found to be 250 nM. In the data set “Solubility pH7.4”, this molecule displayed a solubility of 648 µg/mL (≈ 1270 µM). Take `Cc1cnc(-c2ccc(C(=O)N[C@@H](C[C@H](C)C(=O)O)C(=O)NC(C)(C)Cc3ccc(F)cc3)cc2)s1` [Compound 19, (2S,4S)-4-[2-(4-Fluoro-phenyl)-1,1-dimethyl-ethylcarbamoyl]-2-methyl-4-[4-(5-methyl-thiazol-2-yl)-benzoylamino]-butyric acid]: in data set [1], the half-maximal inhibitory concentration (IC50) was 1200 nM. In “Solubility pH7.4”, this molecule yielded a solubility of 637 µg/mL (≈ 1250 µM).

Source of the values: patent US9656949B2, “Substituted carboxylic acid derivatives as aggrecanase inhibitors for the treatment of osteoarthritis” (MERCK PATENT GMBH, priority 2013, dated 2017).
